Experimental data: patent US20240327406A1, “POTASSIUM CHANNEL MODULATORS” (Autifony Therapeutics Limited, priority 2021, published 2024)
“And” between values parts separate entries of the source, which are not always exact repeats. Identical values can stand only once. Like-named read-outs stand apart in the source and are kept apart here.

Target: T1, human Kv3.1 channels (hKv3.1) (Homo sapiens, UniProt P48547)
T1 sequence (P48547 1-501 limits assumed): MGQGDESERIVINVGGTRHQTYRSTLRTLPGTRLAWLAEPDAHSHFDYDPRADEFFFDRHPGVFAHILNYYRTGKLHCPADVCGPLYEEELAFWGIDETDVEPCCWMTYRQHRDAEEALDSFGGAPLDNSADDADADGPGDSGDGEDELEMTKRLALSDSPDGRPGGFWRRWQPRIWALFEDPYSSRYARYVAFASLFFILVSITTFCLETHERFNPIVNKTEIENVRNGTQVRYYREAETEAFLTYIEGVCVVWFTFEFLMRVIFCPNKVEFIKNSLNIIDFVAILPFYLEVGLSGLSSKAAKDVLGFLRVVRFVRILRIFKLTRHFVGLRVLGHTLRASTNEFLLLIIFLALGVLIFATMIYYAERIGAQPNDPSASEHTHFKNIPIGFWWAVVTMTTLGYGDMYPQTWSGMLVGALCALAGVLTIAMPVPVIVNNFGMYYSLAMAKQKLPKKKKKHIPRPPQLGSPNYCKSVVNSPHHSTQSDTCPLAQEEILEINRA
Experiment: Measurement of Kv3 channel modulation: Kv3.1 assay (IonWorks Quattro whole-cell electrophysiology)
Assay type: cell-based
Conditions: for Kv3.1 max R %: normalised to maximum effect of reference compound (50 microM); for EC50: read-out: Kv3.1 pEC50 (converted)

[1] = Table 2, Example compounds, rounded to one decimal place, some compounds with two data sets (n given in cell)

Structure (SMILES)	Kv3.1 max R % (Table 2, Example compounds)	EC50 [1]	EC50 (Table 5, Example compounds)
Cc1ccc(Oc2ccc(-n3c(=O)[nH]c4cccnc43)cn2)cc1OC(F)(F)F [Example 4, 3-[6-[4-methyl-3-(trifluoromethoxy)phenoxy]-3-pyridyl]-1H-imidazo[4,5-b]pyridin-2-one]	111%	1.26 µM	1.26 µM
O=c1[nH]c2cccnc2n1-c1cnc(Oc2cccc(OC(F)(F)F)c2)nc1 [Example 17, 3-[2-[3-(trifluoromethoxy)phenoxy]pyrimidin-5-yl]-1H-imidazo[4,5-b]pyridin-2-one]	103% and 125%	1.26 µM	1 µM
Cc1ccc(Oc2ncc(-n3c(=O)[nH]c4cccnc43)cn2)cc1OC(F)(F)F [Example 32, 3-[2-[4-methyl-3-(trifluoromethoxy)phenoxy]pyrimidin-5-yl]-1H-imidazo[4,5-b]pyridin-2-one]	174%	1.58 µM	1.58 µM
